Results reported in the supplement of paper PMC11061612.

Legend:
Paclitaxel = compound: CC(=O)O[C@H]1C(=O)[C@@]2(C)[C@H]([C@H](OC(=O)c3ccccc3)[C@]3(O)C[C@H](OC(=O)[C@H](O)[C@@H](NC(=O)c4ccccc4)c4ccccc4)C(C)=C1C3(C)C)[C@]1(OC(C)=O)CO[C@@H]1C[C@@H]2O [Paclitaxel]; settings: max 3 µM
Method in brief: (§1)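 In 1536-well plates, cancer cell lines in 7.5 μl DMEM/F12 or RPMI with 10% FBS spent 24 hours at 37°C and 5% CO2 and were then dosed for 72 hours with final DMSO typically 0.2%. Viability was read by CellTiter-Glo 2.0 luminescence and scaled between blank-well and DMSO-well means. The single-agent IC50 was fitted from dose responses using a logistic curve in a non-linear mixed effects model, and that logistic curve had two parameters.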

Doxorubicin = compound: COc1cccc2c1C(=O)c1c(O)c3c(c(O)c1C2=O)C[C@@](O)(C(=O)CO)C[C@@H]3O[C@H]1C[C@H](N)[C@H](O)[C@H](C)O1 [Doxorubicin]; settings: max 1 µM
Method in brief: as §1

5-Fluorouracil = compound: O=c1[nH]cc(F)c(=O)[nH]1 [5-Fluorouracil]; settings: max 20 µM
Method in brief: as §1

AZD6738 = compound: C[C@@H]1COCCN1C2=NC(=NC(=C2)C3(CC3)[S@](=N)(=O)C)C4=C5C=CNC5=NC=C4 [AZD6738]; settings: max 10 µM
Method in brief: as §1

AZD0156 = compound: CN(C)CCCOc1ccc(-c2ccc3ncc4c(c3c2)n(C2CCOCC2)c(=O)n4C)cn1 [AZD0156]; settings: max 3 µM
Method in brief: as §1

AZD5153 = compound: COc1nnc2ccc(N3CCC(c4ccc(OCCN5CCN(C)C(=O)[C@H]5C)cc4)CC3)nn12 [AZD5153]; settings: max 1 µM
Method in brief: as §1

AZD5991 = compound: Cc1c2c(nn1C)CSCc1cc(n(C)n1)CSc1cc(c3ccccc3c1)OCCCc1c(C(=O)O)n(C)c3c-2c(Cl)ccc13 [AZD5991]; settings: max 1 µM
Method in brief: as §1

Crizotinib = compound: C[C@@H](Oc1cc(-c2cnn(C3CCNCC3)c2)cnc1N)c1c(Cl)ccc(F)c1Cl [Crizotinib]; settings: max 10 µM
Method in brief: as §1

Gefitinib = compound: COc1cc2ncnc(Nc3ccc(F)c(Cl)c3)c2cc1OCCCN1CCOCC1 [Gefitinib]; settings: max 10 µM
Method in brief: as §1

Venetoclax = compound: CC1(C)CCC(CN2CCN(c3ccc(C(=O)NS(=O)(=O)c4ccc(NCC5CCOCC5)c([N+](=O)[O-])c4)c(Oc4cnc5[nH]ccc5c4)c3)CC2)=C(c2ccc(Cl)cc2)C1 [Venetoclax]; settings: max 1 µM
Method in brief: as §1

[1] = compound: O=C(Nc1ccc2[nH]nc(-c3ccncc3)c2c1)[C@@H]1CCN(CC(=O)N2CCN(c3ccc(-c4ncccn4)cc3)CC2)C1; settings: max 5 µM
Method in brief: as §1

AZD5363 = compound: C1CN(CCC1(C(=O)N[C@@H](CCO)C2=CC=C(C=C2)Cl)N)C3=NC=NC4=C3C=CN4 [AZD5363]; settings: max 10 µM
Method in brief: as §1

AZD2811 = compound: CCN(CCO)CCCOc1ccc2c(Nc3cc(CC(=O)Nc4cccc(F)c4)[nH]n3)ncnc2c1 [AZD2811]; settings: max 1 µM
Method in brief: as §1

Alisertib = compound: COc1cc(Nc2ncc3c(n2)-c2ccc(Cl)cc2C(c2c(F)cccc2OC)=NC3)ccc1C(=O)O [Alisertib]; settings: max 10 µM
Method in brief: as §1

AZD7648 = compound: Cc1cc2ncnn2cc1Nc1ncc2c(n1)n(C1CCOCC1)c(=O)n2C [AZD7648]; settings: max 10 µM
Method in brief: as §1

Prexasertib = compound: COc1cccc(OCCCN)c1-c1cc(Nc2cnc(C#N)cn2)n[nH]1 [Prexasertib]; settings: max 1 µM
Method in brief: as §1

Gemcitabine = compound: Nc1ccn([C@@H]2O[C@H](CO)[C@@H](O)C2(F)F)c(=O)n1 [Gemcitabine]; settings: max 0.3 µM
Method in brief: as §1

SRA737 = compound: N#Cc1cnc(Nc2cc(NC[C@H]3CNCCO3)c(C(F)(F)F)cn2)cn1 [SRA737]; settings: max 10 µM
Method in brief: as §1

AZD1390 = compound: CC(C)n1c(=O)n(C)c2cnc3cc(F)c(-c4ccc(OCCCN5CCCCC5)nc4)cc3c21 [AZD1390]; settings: max 0.3 µM
Method in brief: as §1

Etoposide = compound: COc1cc([C@@H]2c3cc4c(cc3[C@@H](O[C@@H]3O[C@@H]5CO[C@@H](C)O[C@H]5[C@H](O)[C@H]3O)[C@H]3COC(=O)[C@H]23)OCO4)cc(OC)c1O [Etoposide]; settings: max 10 µM
Method in brief: as §1

Selumetinib = compound: Cn1cnc2c(F)c(Nc3ccc(Br)cc3Cl)c(C(=O)NOCCO)cc21 [Selumetinib]; settings: max 10 µM
Method in brief: as §1

Olaparib = compound: O=C(c1cc(Cc2n[nH]c(=O)c3ccccc23)ccc1F)N1CCN(C(=O)C2CC2)CC1 [Olaparib]; settings: max 10 µM
Method in brief: as §1

AZD8186 = compound: C[C@@H](Nc1cc(F)cc(F)c1)c1cc(C(=O)N(C)C)cc2c(=O)cc(N3CCOCC3)oc12 [AZD8186]; settings: max 10 µM
Method in brief: as §1

SN-38 = compound: CCc1c2c(nc3ccc(O)cc13)-c1cc3c(c(=O)n1C2)COC(=O)[C@]3(O)CC [SN-38]; settings: max 0.3 µM
Method in brief: as §1

Dasatinib = compound: CC1=C(C(=CC=C1)Cl)NC(=O)C2=CN=C(S2)NC3=CC(=NC(=N3)C)N4CCN(CC4)CCO [Dasatinib]; settings: max 2 µM
Method in brief: as §1

MK-2206 = compound: NC1(c2ccc(-c3nc4ccn5c(=O)[nH]nc5c4cc3-c3ccccc3)cc2)CCC1 [MK-2206]; settings: max 10 µM
Method in brief: as §1

Palbociclib = compound: CC(=O)c1c(C)c2cnc(Nc3ccc(N4CCNCC4)cn3)nc2n(C2CCCC2)c1=O [Palbociclib]; settings: max 10 µM
Method in brief: as §1

Carboplatin = compound: C1CC(C1)(C(=O)[O-])C(=O)[O-].N.N.[Pt+2] [Carboplatin]; settings: max 10 µM
Method in brief: as §1

Trametinib = compound: CC(=O)Nc1cccc(-n2c(=O)n(C3CC3)c(=O)c3c(Nc4ccc(I)cc4F)n(C)c(=O)c(C)c32)c1 [Trametinib]; settings: max 1 µM
Method in brief: as §1

Savolitinib = compound: C[C@@H](c1ccc2nccn2c1)n1nnc2ncc(-c3cnn(C)c3)nc21 [Savolitinib]; settings: max 1 µM
Method in brief: as §1

Lapatinib = compound: CS(=O)(=O)CCNCc1ccc(-c2ccc3ncnc(Nc4ccc(OCc5cccc(F)c5)c(Cl)c4)c3c2)o1 [Lapatinib]; settings: max 10 µM
Method in brief: as §1

AZD1775 = compound: C=CCn1c(=O)c2cnc(Nc3ccc(N4CCN(C)CC4)cc3)nc2n1-c1cccc(C(C)(C)O)n1 [AZD1775]; settings: max 3 µM
Method in brief: as §1

SG3199 = compound: CC1=CN2[C@@H](C1)C=NC3=CC(=C(C=C3C2=O)OC)OCCCCCOC4=C(C=C5C(=C4)N=C[C@@H]6CC(=CN6C5=O)C)OC [SG3199]; settings: max 0.001 µM
Method in brief: as §1

Taselisib = compound: Cc1nc(-c2cn3c(n2)-c2ccc(-c4cnn(C(C)(C)C(N)=O)c4)cc2OCC3)n(C(C)C)n1 [Taselisib]; settings: max 10 µM
Method in brief: as §1

AZD4320 = compound: CN(CC[C@H](CSC1=CC=CC=C1)NC2=C(C=C(C=C2)S(=O)(=O)NC(=O)C3=CC=C(C=C3)N4CCC(CC4)[C@H](C5=CC=CC=C5C6=CC=C(C=C6)Cl)O)S(=O)(=O)C(F)(F)F)CCO [AZD4320]; settings: max 1 µM
Method in brief: as §1

Cell Line | IC50, cell viability 72 h (Paclitaxel) [nM] | IC50, cell viability 72 h (Doxorubicin) [nM] | IC50, cell viability 72 h (5-Fluorouracil) [nM] | IC50, cell viability 72 h (AZD6738) [nM] | IC50, cell viability 72 h (AZD0156) [nM] | IC50, cell viability 72 h (AZD5153) [nM] | IC50, cell viability 72 h (AZD5991) [nM] | IC50, cell viability 72 h (Crizotinib) [nM] | IC50, cell viability 72 h (Gefitinib) [nM] | IC50, cell viability 72 h (Venetoclax) [nM] | IC50, cell viability 72 h [1] [nM] | IC50, cell viability 72 h (AZD5363) [nM] | IC50, cell viability 72 h (AZD2811) [nM] | IC50, cell viability 72 h (Alisertib) [nM] | IC50, cell viability 72 h (AZD7648) [nM] | IC50, cell viability 72 h (Prexasertib) [nM] | IC50, cell viability 72 h (Gemcitabine) [nM] | IC50, cell viability 72 h (SRA737) [nM] | IC50, cell viability 72 h (AZD1390) [nM] | IC50, cell viability 72 h (Etoposide) [nM] | IC50, cell viability 72 h (Selumetinib) [nM] | IC50, cell viability 72 h (Olaparib) [nM] | IC50, cell viability 72 h (AZD8186) [nM] | IC50, cell viability 72 h (SN-38) [nM] | IC50, cell viability 72 h (Dasatinib) [nM] | IC50, cell viability 72 h (MK-2206) [nM] | IC50, cell viability 72 h (Palbociclib) [nM] | IC50, cell viability 72 h (Carboplatin) [nM] | IC50, cell viability 72 h (Trametinib) [nM] | IC50, cell viability 72 h (Savolitinib) [nM] | IC50, cell viability 72 h (Lapatinib) [nM] | IC50, cell viability 72 h (AZD1775) [nM] | IC50, cell viability 72 h (SG3199) [nM] | IC50, cell viability 72 h (Taselisib) [nM] | IC50, cell viability 72 h (AZD4320) [nM]
LK-2 (Squamous Cell Lung Carcinoma) | 5.55 | > 1000 | > 20000 | > 10000 | > 3000 | > 1000 | > 1000 | 5710 | > 10000 | > 1000 | 1930 | > 10000 | 55.1 | 60.6 | > 10000 | 137 | 277 | > 10000 | > 300 | 9260 | > 10000 | > 10000 | > 10000 | 199 | > 2000 | > 10000 | > 10000 | > 10000 | 349 | > 1000 | > 10000 | 295 | > 1 | > 10000 | > 1000
MFE-280 (Endometrial Carcinoma) | 533 | > 1000 | > 20000 | > 10000 | > 3000 | > 1000 | > 1000 | > 10000 | > 10000 | > 1000 | > 5000 | > 10000 | > 1000 | 4940 | > 10000 | > 1000 | > 300 | > 10000 | > 300 | 7530 | > 10000 | > 10000 | > 10000 | 198 | > 2000 | 3590 | > 10000 | > 10000 | > 1000 | > 1000 | > 10000 | > 3000 | > 1 | 177 | > 1000
MKN45 (Gastric Carcinoma) | 43.5 | 544 | > 20000 | 2730 | > 3000 | 719 | > 1000 | 82.7 | > 10000 | > 1000 | 821 | > 10000 | > 1000 | > 10000 | > 10000 | 19.7 | 53.6 | 3610 | > 300 | > 10000 | 5840 | > 10000 | > 10000 | 32.9 | > 2000 | 5470 | 9410 | > 10000 | 59.9 | 13.1 | > 10000 | 497 | > 1 | 6450 | > 1000
